Data published in patent publication US20240247080A1, “GLP1/GIP/NPY2 RECEPTOR TRIPLE AGONISTS” (Boehringer Ingelheim International GmbH, priority 2022, published 2024).
Where two headings read alike, the source gives them in different places. Starred links: 1 amine or outer side, 2 acyl side, 3 side chain; linkers in the order of their positions; H or OH if unused. Non-standard residues stand in square brackets, D forms with d. Groups on a side chain read outwards from the residue. *: point of attachment. C18 diacid = O=C(O)CCCCCCCCCCCCCCCCC(=O)*; γGlu = O=C(O)[C@H](CCC(=O)[*:2])N[*:1]; Aib = CC(C)(N)C(=O)O

Legend:
hGLP1R = target: T1, hGLP1R (Homo sapiens, UniProt P43220); test: hGLP1R CreLuc reporter gene assay in 0.5% and 100% plasma; type: cell-based; conditions: CreLuc reporter gene assay
T1 construct: expressed in transfected cells; host or cells: HEK-293 cells carrying a CRE-luciferase reporter gene
Summary of the method: (§1)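 HEK cells (GLP-1R, NPY2R) or CHO cells (GIPR) carrying a CRE-luciferase reporter, incubated 4 h at 37 °C with peptides in HBSS/20 mM HEPES pH 7.4 plus 0.5% human plasma, or in 100% plasma. Luminescence read; EC50 from 8-point variable-slope sigmoid fits.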

hGIPR = target: T2, hGIPR (Homo sapiens, UniProt P48546); test: hGIPR CreLuc reporter gene assay in 0.5% and 100% plasma; type: cell-based; conditions: CreLuc reporter gene assay
T2 construct: expressed in transfected cells; host or cells: CHO cells carrying a CRE-luciferase reporter gene
T2 sequence (P48546 22-466): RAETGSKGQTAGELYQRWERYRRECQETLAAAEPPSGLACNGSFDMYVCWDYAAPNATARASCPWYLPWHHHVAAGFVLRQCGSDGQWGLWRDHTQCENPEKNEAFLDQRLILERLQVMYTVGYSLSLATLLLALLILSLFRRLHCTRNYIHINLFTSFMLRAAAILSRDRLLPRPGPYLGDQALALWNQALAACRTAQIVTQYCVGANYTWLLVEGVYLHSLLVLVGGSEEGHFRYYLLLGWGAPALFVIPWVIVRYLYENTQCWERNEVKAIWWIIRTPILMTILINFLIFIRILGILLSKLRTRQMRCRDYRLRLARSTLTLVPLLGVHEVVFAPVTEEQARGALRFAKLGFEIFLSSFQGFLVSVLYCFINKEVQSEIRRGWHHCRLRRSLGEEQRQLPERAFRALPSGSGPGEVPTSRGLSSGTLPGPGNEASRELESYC
Summary of the method: as §1

hNPY2R = target: T3, hNPY2R (Homo sapiens, UniProt P49146); test: hNPY2R CreLuc reporter gene assay in 0.5% and 100% plasma; type: cell-based; conditions: CreLuc reporter gene assay
T3 construct: expressed in transfected cells; host or cells: HEK-293 cells carrying a CRE-luciferase reporter gene
T3 sequence (P49146 1-381): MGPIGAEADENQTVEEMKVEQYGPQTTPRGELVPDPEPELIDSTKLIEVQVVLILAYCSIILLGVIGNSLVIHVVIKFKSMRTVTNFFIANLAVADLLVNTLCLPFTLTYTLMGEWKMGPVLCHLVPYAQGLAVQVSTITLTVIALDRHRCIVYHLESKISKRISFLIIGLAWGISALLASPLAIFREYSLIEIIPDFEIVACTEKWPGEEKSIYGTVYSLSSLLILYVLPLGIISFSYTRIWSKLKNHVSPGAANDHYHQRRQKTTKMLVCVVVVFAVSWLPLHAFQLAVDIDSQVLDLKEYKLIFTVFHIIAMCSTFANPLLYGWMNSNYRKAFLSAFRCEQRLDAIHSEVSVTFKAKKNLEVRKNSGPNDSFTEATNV
Summary of the method: as §1

[1] = Effect on acute food intake in normal NMRI mice; type: in vivo; conditions: 30 nmol/kg subcutaneously once, normalized to vehicle group, male NMRI mice
Protocol: Example 4: Effect on Acute Food Intake in Normal NMRI Mice
Male NMRI mice were obtained from Janvier (Janvier Labs, France) or from Charles River (Charles River Research Models & Services Germany GmbH) at the age of 3 weeks. The animals get a microchip (Datamars, Slim Microchip T-SL) for individual identification after delivery. They were housed with 4 mice per cage under a 12/12 dark-light cycle, light off at 3 p.m. Room temperature was controlled to 21° C. +/−1° C. and humidity 60%+/−20%. Mice had ad libitum access to regular rodent chow (KLIBA Nafag 3040 or Altromin 1324, Brogaarden, Denmark) and tap water.
Latest transfer into the HM2-System of MBRose, Denmark (real-time monitoring system of food- and water intake) of the animals 5 days before study start, to allow acclimatization to experimental conditions. As the animals were uniquely identified with the microchips, each individual animal was identified by its own microchip upon entry and exit from the food channel via antennae. Randomization of the mice for each study group (n=8; age earliest 6 weeks old) was based on food intake (middle of last three days 24 h-Intervall) and bodyweight directly before start of the study. A vehicle treated (50 mM phosphate buffer pH7.4 with 3.5% Mannitol) group was included in each experiment. To have the same nutrition standard for each animal the food access was locked eight hours before dark phase. One hour before night, the animals were once treated subcutaneously with the test peptide. Food intake was reported hourly for a period of 24 h.

[2] = Mouse PK after intravenous application; type: in vivo; conditions: plasma, mean residence time, intravenous 30-60 nmol/kg, male NMRI mice
Protocol: Pharmacokinetic parameters of the peptides were determined after intravenous application to NMRI mice. Male NMRI mice were obtained from Janvier Laboratories (France) weighing 30 to 40 g. Mice were housed in standard cages with a 12:12 hour light:dark cycle and standard food and water access ad libitum. Each test peptide was dissolved in 50 mM phosphate buffer (pH 7.4)/3.5% mannitol. Intravenous application of 30-60 nmol/kg was performed via the tail vein. Serial blood samples from conscious mice were collected from the saphenous vein in EDTA-containing vials at different time points up to 56 hours post-dosing. Subsequently, plasma was prepared by centrifugation for 5 min at approximately 5000 rpm and stored at −20° C. until quantification of the peptide plasma levels by liquid chromatography mass spectrometry (LC-MS). Individual plasma concentration—time profiles were analysed by a non-compartmental approach and the resulting pharmacokinetic parameters were calculated.

[3] = 0.5% human plasma, read-out: hGLP1R 0.5% hP
[4] = 100% human plasma, read-out: hGLP1R 100% hP
[5] = 0.5% human plasma, read-out: hGIPR 0.5% hP
[6] = 100% human plasma, read-out: hGIPR 100% hP
[7] = 0.5% human plasma, read-out: hNPY2R 0.5% hP

T1 sequence (P43220 24-463): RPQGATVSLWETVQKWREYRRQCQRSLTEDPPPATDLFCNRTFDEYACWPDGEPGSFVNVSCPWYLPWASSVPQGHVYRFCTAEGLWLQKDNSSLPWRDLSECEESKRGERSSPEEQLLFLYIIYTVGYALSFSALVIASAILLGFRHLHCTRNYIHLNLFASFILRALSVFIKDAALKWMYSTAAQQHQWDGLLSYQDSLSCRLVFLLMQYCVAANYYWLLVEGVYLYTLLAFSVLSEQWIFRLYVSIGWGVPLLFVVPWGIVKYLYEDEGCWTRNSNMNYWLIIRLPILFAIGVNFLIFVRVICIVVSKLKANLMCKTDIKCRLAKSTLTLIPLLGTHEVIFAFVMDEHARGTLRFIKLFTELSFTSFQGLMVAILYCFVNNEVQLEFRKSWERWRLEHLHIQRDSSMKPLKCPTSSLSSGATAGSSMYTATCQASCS

Compound	EC50 (hGLP1R; [3]) [nM]	EC50 (hGLP1R; [4]) [nM]	EC50 (hGIPR; [5]) [nM]	EC50 (hGIPR; [6]) [nM]	EC50 (hNPY2R; [7]) [nM]	Acute Food Intake 24 h 30 nmol/kg [% CTL] [1] [% CTL]	MRT [2] [h]	EC50 (hNPY2R; 100% human plasma, read-out: hNPY2R 100% hP) [nM]
H-Y[Aib]EGTFTSDYSI[Aib]LEKQAQ[Aib]EFVEWLIK([γGlu-γGlu-γGlu-γGlu-C18 diacid])GGPSEGASLRHYYNWLTRQRY-NH2 [Compound 276, Y-Aib-E-G-T-F-T-S-D-Y-S-I-Aib-L-E-K-Q-A-Q-Aib-E-F-V-E-W-L-I-K(1,3)-GGPSEGASLRHYYNWLTRQRY-NH2.C18DA-gGlu-gGlu-gGlu-gGlu(1,2)]	0.35	16.7	0.37	1.82	20.7	60	–	–
CC[C@H](C)[C@H](NC(=O)[C@H](CC(C)C)NC(=O)[C@H](Cc1c[nH]c2ccccc12)NC(=O)[C@H](CCC(=O)O)NC(=O)[C@@H](NC(=O)[C@H](Cc1ccccc1)NC(=O)[C@H](C)NC(=O)C(C)(C)NC(=O)[C@H](CCC(N)=O)NC(=O)[C@H](C)NC(=O)[C@H](CCC(N)=O)NC(=O)[C@H](CCCCN)NC(=O)[C@H](CCC(=O)O)NC(=O)[C@H](CC(C)C)NC(=O)C(C)(C)NC(=O)[C@@H](NC(=O)[C@H](CO)NC(=O)[C@H](Cc1ccc(O)cc1)NC(=O)[C@H](CC(=O)O)NC(=O)[C@H](CO)NC(=O)[C@@H](NC(=O)[C@H](Cc1ccccc1)NC(=O)[C@@H](NC(=O)CNC(=O)[C@H](CCC(=O)O)NC(=O)C(C)(C)NC(=O)[C@@H](N)Cc1ccc(O)cc1)[C@@H](C)O)[C@@H](C)O)[C@@H](C)CC)C(C)C)C(=O)N[C@@H](CCCCNC(=O)[C@@H](N)CCCCNC(=O)CC[C@H](NC(=O)CC[C@H](NC(=O)CC[C@H](NC(=O)CC[C@H](NC(=O)CC[C@H](NC(=O)CC[C@H](NC(=O)CCCCCCCCCCCCCCCCCCC(=O)O)C(=O)O)C(=O)O)C(=O)O)C(=O)O)C(=O)O)C(=O)O)C(=O)NCC(=O)NCC(=O)N1CCC[C@H]1C(=O)N[C@@H](CO)C(=O)N[C@@H](CO)C(=O)NCC(=O)N[C@@H](C)C(=O)N[C@@H](CO)C(=O)N[C@@H](CC(C)C)C(=O)N[C@@H](CCCNC(=N)N)C(=O)N[C@@H](Cc1c[nH]cn1)C(=O)N[C@@H](Cc1ccc(O)cc1)C(=O)N[C@@H](Cc1ccc(O)cc1)C(=O)N[C@@H](CC(N)=O)C(=O)N[C@@H](Cc1c[nH]c2ccccc12)C(=O)N[C@@H](CC(C)C)C(=O)N[C@H](C(=O)N[C@@H](CCCNC(=N)N)C(=O)N[C@@H](CCC(N)=O)C(=O)N(C)[C@@H](CCCNC(=N)N)C(=O)N[C@@H](Cc1ccc(O)cc1)C(N)=O)[C@@H](C)O [Compound 83, Y-Aib-E-G-T-F-T-S-D-Y-S-I-Aib-L-E-K-Q-A-Q-Aib-A-F-V-E-W-L-I-K(1,3)-G-G-P-S-S-G-A-S-L-R-H-Y-Y-N-W-L-T-R-Q-NMeR-Y-NH2.C20DA-gGlu-gGlu-gGlu-gGlu-gGlu-gGlu-eLys(1,2)]	0.17	2.87	0.13	1.06	28.8	–	10.3	–
CC[C@H](C)[C@H](NC(=O)[C@H](CC(C)C)NC(=O)[C@H](Cc1c[nH]c2ccccc12)NC(=O)[C@H](CCC(=O)O)NC(=O)[C@@H](NC(=O)[C@H](Cc1ccccc1)NC(=O)[C@H](C)NC(=O)C(C)(C)NC(=O)[C@H](CCC(N)=O)NC(=O)[C@H](C)NC(=O)[C@H](CCC(N)=O)NC(=O)[C@H](CCCCN)NC(=O)[C@H](CCC(=O)O)NC(=O)[C@H](CC(C)C)NC(=O)C(C)(C)NC(=O)[C@@H](NC(=O)[C@H](CO)NC(=O)[C@H](Cc1ccc(O)cc1)NC(=O)[C@H](CC(=O)O)NC(=O)[C@H](CO)NC(=O)[C@@H](NC(=O)[C@H](Cc1ccccc1)NC(=O)[C@@H](NC(=O)CNC(=O)[C@H](CCC(=O)O)NC(=O)C(C)(C)NC(=O)[C@@H](N)Cc1ccc(O)cc1)[C@@H](C)O)[C@@H](C)O)[C@@H](C)CC)C(C)C)C(=O)N[C@@H](CCCCNC(=O)[C@@H](N)CCCCNC(=O)CC[C@H](NC(=O)CC[C@H](NC(=O)CC[C@H](NC(=O)CC[C@H](NC(=O)CC[C@H](NC(=O)CC[C@H](NC(=O)CCCCCCCCCCCCCCCCCCC(=O)O)C(=O)O)C(=O)O)C(=O)O)C(=O)O)C(=O)O)C(=O)O)C(=O)NCC(=O)NCC(=O)N1CCC[C@H]1C(=O)N[C@@H](CO)C(=O)N[C@@H](CO)C(=O)NCC(=O)N[C@H](C(=O)N[C@@H](CO)C(=O)N[C@H](C(=O)N[C@@H](CCCNC(=N)N)C(=O)N[C@@H](Cc1c[nH]cn1)C(=O)N[C@@H](Cc1ccc(O)cc1)C(=O)N[C@@H](Cc1ccc(O)cc1)C(=O)N[C@@H](CC(N)=O)C(=O)N[C@@H](Cc1c[nH]c2ccccc12)C(=O)N[C@@H](CC(C)C)C(=O)N[C@H](C(=O)N[C@@H](CCCNC(=N)N)C(=O)N[C@@H](CCC(N)=O)C(=O)N[C@@H](CCCNC(=N)N)C(=O)N[C@@H](Cc1ccc(O)cc1)C(N)=O)[C@@H](C)O)[C@@H](C)CC)C(C)C [Compound 27, Y-Aib-E-G-T-F-T-S-D-Y-S-I-Aib-L-E-K-Q-A-Q-Aib-A-F-V-E-W-L-I-K(1,3)-GGPSSGVSIRHYYNWLTRQRY-NH2.C20DA-gGlu-gGlu-gGlu-gGlu-gGlu-gGlu-eLys(1,2)]	0.1	–	0.17	1.11	–	–	6.7	21
